# From patent US20220135591A1, “HETEROCYCLIC COMPOUNDS AS INHIBITORS OF MONOACYLGLYCEROL LIPASE (MAGL)” (Hoffmann-La Roche Inc., priority 2019, published 2022)
# Target: T1, MAGL (recombinant wild-type) (Homo sapiens, UniProt Q99685)
# T1 sequence (Q99685 1-303): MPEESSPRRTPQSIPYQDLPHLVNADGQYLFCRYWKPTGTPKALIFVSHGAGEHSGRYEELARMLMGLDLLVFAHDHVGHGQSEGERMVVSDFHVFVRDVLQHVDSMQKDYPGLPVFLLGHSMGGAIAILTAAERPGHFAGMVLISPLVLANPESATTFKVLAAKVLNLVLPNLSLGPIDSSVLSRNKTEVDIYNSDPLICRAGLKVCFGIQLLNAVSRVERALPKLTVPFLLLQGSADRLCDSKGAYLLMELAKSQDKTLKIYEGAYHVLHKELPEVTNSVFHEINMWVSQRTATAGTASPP
# Assay: 4-NPA assay: MAGL inhibitory activity by hydrolysis of 4-nitrophenylacetate, absorbance at 405 nm
# Format: biochemical
# Conditions: 4-NPA assay (values without footnote [b])
# Procedure, shortened: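 Final assay: 1 nM MAGL and 300 μM 4-nitrophenylacetate in 50 mM Tris, 1 mM EDTA, at RT. Compounds (25 μM–1.7 nM, 3-fold steps) were preincubated 15 min with enzyme. A405 was read 5 min after substrate addition and again after 80 min; activity was taken as the difference between reads.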
row,SMILES,IC50 [nM]
1,"O=C(c1cnc(OCC2(C(F)(F)F)CC2)c(F)c1)N1CCN(c2nc3nc(Cl)ccc3o2)CC1 [Example 144, (4-(5-chlorooxazolo[4,5-b]pyridin-2-yl)piperazin-1-yl)(5-fluoro-6-((1-(trifluoromethyl)cyclopropyl)methoxy)pyridin-3-yl)methanone]",105
2,"Cc1ccc2oc(N3CCN(C(=O)c4cc(OCCC(F)(F)F)cc(-c5ccc(CO)cc5)c4)CC3)nc2n1 [Example 182, [3-[4-(hydroxymethyl)phenyl]-5-(3,3,3-trifluoropropoxy)phenyl]-[4-(5-methyl-[1,3]oxazolo[4,5-b]pyridin-2-yl)piperazin-1-yl]methanone]",379
3,"CC(C)(C)Cc1nc(-c2ccc(C(=O)N3CCN(c4nc5nc(Cl)ccc5o4)CC3)cc2)no1 [Example 10, (4-(5-chlorooxazolo[4,5-b]pyridin-2-yl)piperazin-1-yl)(4-(5-neopentyl-1,2,4-oxadiazol-3-yl)phenyl)methanone]",2
4,"Cc1ccc2oc(N3CCN(C(=O)c4cnc(N5CC(OC(C)C(F)(F)F)C5)nc4)CC3)nc2n1 (centres unmarked) [Example 219, (4-(5-methyloxazolo[4,5-b]pyridin-2-yl)piperazin-1-yl)(2-(3-((1,1,1-trifluoropropan-2-yl)oxy)azetidin-1-yl)pyrimidin-5-yl)methanone]",220
5,"Cc1ccc2oc(N3CCN(C(=O)c4cc(Cl)cc(N5CCS(=O)(=O)CC5)c4)CC3)nc2n1 [Example 175, [3-chloro-5-(1,1-dioxo-1,4-thiazinan-4-yl)phenyl]-[4-(5-methyl-[1,3]oxazolo[4,5-b]pyridin-2-yl)piperazin-1-yl]methanone]",1520
6,"Cc1ccc2oc(N3CCN(C(=O)c4ccc5nc(C6CCCCC6)oc5c4)CC3)nc2n1 [Example 17, (2-cyclohexyl-1,3-benzoxazol-6-yl)-[4-(5-methyloxazolo[4,5-b]pyridin-2-yl)piperazin-1-yl]methanone]",36
7,"Cc1ccc2oc(N3CCN(C(=O)c4ccc(-c5nnc(C(C)(C)C)o5)cc4)CC3)nc2n1 [Example 31, [4-(5-tert-butyl-1,3,4-oxadiazol-2-yl)phenyl]-[4-(5-methyloxazolo[4,5-b]pyridin-2-yl)piperazin-1-yl]methanone]",260
8,"CCC(CC)c1nc2ccc(C(=O)N3CCN(c4nc5nc(C)ccc5o4)CC3)cc2o1 [Example 15, [2-(1-ethylpropyl)-1,3-benzoxazol-6-yl]-[4-(5-methyloxazolo[4,5-b]pyridin-2-yl)piperazin-1-yl]methanone]",352
9,"Cc1ccc2oc(N3CCN(C(=O)c4ccc(-n5cc(C(C)(C)C)cn5)cc4)CC3)nc2n1 [Example 53, [4-(4-tert-butylpyrazol-1-yl)phenyl]-[4-(5-methyloxazolo[4,5-b]pyridin-2-yl)piperazin-1-yl]methanone]",12
10,"CC(C)(C)OC1CN(c2ccc(C(=O)N3CCN(c4nc5nc(Cl)ccc5o4)CC3)cc2)C1 [Example 204, (4-(3-(tert-butoxy)azetidin-1-yl)phenyl)(4-(5-chlorooxazolo[4,5-b]pyridin-2-yl)piperazin-1-yl)methanone]",18
11,"Cc1ccc2oc(N3CCN(C(=O)c4ccc(N5CC6(CCC6(F)F)C5)cc4)CC3)nc2n1 [Example 206, (4-(5,5-difluoro-2-azaspiro[3.3]heptan-2-yl)phenyl)(4-(5-methyloxazolo[4,5-b]pyridin-2-yl)piperazin-1-yl)methanone]",61

# Further compounds by falling IC50, results first:
row,IC50 [nM],SMILES
1,441,"O=C(c1ccc(N2CC(Oc3ccccc3)C2)cc1)N1CCN(c2nc3ncccc3o2)CC1 [Example 196, (4-(oxazolo[4,5-b]pyridin-2-yl)piperazin-1-yl)(4-(3-phenoxyazetidin-1-yl)phenyl)methanone]"
2,302,"Cc1ccc2oc(N3CCN(C(=O)c4cc(OCC5(C(F)(F)F)CC5)cc(-c5ccc(CO)cc5)c4)CC3)nc2n1 [Example 185, [3-[4-(hydroxymethyl)phenyl]-5-[[1-(trifluoromethyl)cyclopropyl]methoxy]phenyl]-[4-(5-methyl-[1,3]oxazolo[4,5-b]pyridin-2-yl)piperazin-1-yl]methanone]"
3,184,"CC/C=C/c1nc2ccc(C(=O)N3CCN(c4nc5nc(C)ccc5o4)CC3)cc2o1 [Example 21, [2-[(E)-but-1-enyl]-1,3-benzoxazol-6-yl]-[4-(5-methyloxazolo[4,5-b]pyridin-2-yl)piperazin-1-yl]methanone]"
4,152,"Cc1ccc2oc(N3CCN(C(=O)c4cnc(N5CCC6(C5)CC6(F)F)c(F)c4)CC3)nc2n1 (centres unmarked) [Example 228, (6-(1,1-difluoro-5-azaspiro[2.4]heptan-5-yl)-5-fluoropyridin-3-yl)(4-(5-methyloxazolo[4,5-b]pyridin-2-yl)piperazin-1-yl)methanone]"
5,128,"Cc1ccc2oc(N3CCN(C(=O)c4cnc(OCC5(C(F)(F)F)CC5)c(Cl)c4)CC3)nc2n1 [Example 147, (5-chloro-6-((1-(trifluoromethyl)cyclopropyl)methoxy)pyridin-3-yl)(4-(5-methyloxazolo[4,5-b]pyridin-2-yl)piperazin-1-yl)methanone]"
6,72,"CC1CN(c2nc3nc(Cl)ccc3o2)CCN1C(=O)c1ccc(-c2noc(C(C)(C)C)n2)cc1 (centres unmarked) [Example 45, [4-(5-tert-butyl-1,2,4-oxadiazol-3-yl)phenyl]-[4-(5-chlorooxazolo[4,5-b]pyridin-2-yl)-2-methyl-piperazin-1-yl]methanone]"
7,59,"CC(C)(F)Cc1nc(-c2ccc(C(=O)N3CCN(c4nc5nc(Cl)ccc5o4)CC3)cc2)no1 [Example 264, [4-(5-chlorooxazolo[4,5-b]pyridin-2-yl)piperazin-1-yl]-[4-[5-(2-fluoro-2-methyl-propyl)-1,2,4-oxadiazol-3-yl]phenyl]methanone]"
8,43,"Cc1ccc2oc(N3CCN(C(=O)c4ccc(-n5cnc(C(C)(C)C)n5)cc4)CC3)nc2n1 [Example 70, [4-(3-tert-butyl-1,2,4-triazol-1-yl)phenyl]-[4-(5-methyloxazolo[4,5-b]pyridin-2-yl)piperazin-1-yl]methanone]"
9,14,"O=C(c1ccc(N2CCC3(C2)CC3(F)F)cc1)N1CCN(c2nc3nc(Cl)ccc3o2)CC1 (centres unmarked) [Example 202, [4-(5-chloro-[1,3]oxazolo[4,5-b]pyridin-2-yl)piperazin-1-yl]-[4-(2,2-difluoro-5-azaspiro[2.4]heptan-5-yl)phenyl]methanone]"
10,13,"CC1(Cn2cnc(-c3ccc(C(=O)N4CCN(c5nc6nc(Cl)ccc6o5)CC4)cc3)n2)CC1 [Example 49, [4-(5-chlorooxazolo[4,5-b]pyridin-2-yl)piperazin-1-yl]-[4-[1-[(1-methylcyclopropyl)methyl]-1,2,4-triazol-3-yl]phenyl]methanone]"
11,8,"CC(C)(C)c1nc(-c2ccc(C(=O)N3CCN(c4nc5nc(Cl)ccc5o4)CC3)cc2)no1 [Example 12, (4-(5-(tert-butyl)-1,2,4-oxadiazol-3-yl)phenyl)(4-(5-chlorooxazolo[4,5-b]pyridin-2-yl)piperazin-1-yl)methanone]"
12,3,"CC(C)(C)Cc1noc(-c2ccc(C(=O)N3CCN(c4nc5nc(Cl)ccc5o4)CC3)cc2)n1 [Example 25, [4-(5-chlorooxazolo[4,5-b]pyridin-2-yl)piperazin-1-yl]-[4-[3-(2,2-dimethylpropyl)-1,2,4-oxadiazol-5-yl]phenyl]methanone]"
